# Experiments:
# MM.1S cells = assay: CCK-8 cell viability, MM.1S; type: cell-based; settings: Homo sapiens, MM1.S, 72h
# Protocol: (§1) Cell viability was detected by Cell Counting Kit-8 (CCK-8) (Dojindo Laboratories, Japan). MM cells were seeded on 96-well plates and placed in an incubator for 24 h. After being treated with drugs for another 72 h, cell viability was examined using the CCK-8 reagent. The CellTiter-Glo Luminescent Cell Viability Assay Kit (Promega, USA) was used to determine the viability of CD138^+ cells and PBMCs. For flow cytometry, MM cells were seeded in 6-well plates and placed in an incubator for 24 h. Then, the MM cells were incubated with drugs for another 24 h and collected for flow cytometry analysis. The cell cycle was examined by flow cytometry using a propidium iodide (PI) staining assay kit (BD Biosciences, USA). Cell apoptosis was detected by flow cytometry using the Annexin V/PI Kit (BD Biosciences, USA).
# (§2) The Cell Counting Kit-8 (CCK-8) assay was used for cell viability assessment. CCK-8 provided a highly water-soluble tetrazole salt, WST-8, which would produce a water-soluble orange formazan in the presence of dehydrogenase derived from living cells. The OD value was detected at 450 nm with a microplate analyzer to indirectly reflect the number of living cells. […] Among the four patients, patients 1 (Fig. 2E), 2 (Fig. 2F), and 3 (Fig. 2G) were newly diagnosed, and patient 4 (Fig. 2H) had experienced relapse after prior therapies.
# MM.1R cells = assay: CCK-8 cell viability, MM.1R; type: cell-based; settings: Homo sapiens, 72h
# Protocol: as §1, §2
# RPMI-8226 cells = assay: CCK-8 cell viability, RPMI-8226; type: cell-based; settings: Homo sapiens; RPMI-8226, 72h
# Protocol: as §1, §2
# ARP1 cells = assay: CCK-8 cell viability, ARP1; type: cell-based; settings: Homo sapiens, ARP-1; ARP1, 72h
# Protocol: as §1, §2
# [1] = system: MM patient-derived CD138+ cells; assay: Viability of MM patient-derived BM CD138+ cells; type: cell-based; settings: Homo sapiens, primary MM cell
# Protocol: Human MM.1S (dexamethasone-sensitive), MM.1R (dexamethasone-resistant), ARP1, and RPMI-8226 MM cell lines were obtained from American Type Culture Collection (ATCC, Rockville, USA) and cultured in RPMI-1640 medium (Gibco-BRL, USA) supplemented with 10% fetal bovine serum (Gibco, USA) and 1% penicillin/streptomycin (Gibco, USA). All the cells are maintained in 5% CO2 at 37 °C and have been tested for mycoplasma contamination. Peripheral blood mononuclear cells (PBMCs) were collected from healthy volunteers. BM mononuclear cells and PBMCs from MM patients were isolated by Ficoll-Hypaque density-gradient separation. CD138^+ cells were isolated from BM mononuclear cells of MM patients using CD138^+ Micro Beads and the Auto MACS magnetic cell sorter (Miltenyi Biotech, Germany). All primary samples were obtained with informed consent from patients with MM or healthy donors according to the Declaration of Helsinki. This study was approved by the Review Committee of the First Affiliated Hospital of Nanjing Medical University.
# as §1, §2
# hERG channels = biological target: T1, hERG channels (Homo sapiens, UniProt Q12809); assay: hERG whole-cell patch-clamp, tail current; type: cell-based
# T1 construct: expressed in transfected cells; host or cells: HEK293T
# T1 sequence (Q12809 whole entry): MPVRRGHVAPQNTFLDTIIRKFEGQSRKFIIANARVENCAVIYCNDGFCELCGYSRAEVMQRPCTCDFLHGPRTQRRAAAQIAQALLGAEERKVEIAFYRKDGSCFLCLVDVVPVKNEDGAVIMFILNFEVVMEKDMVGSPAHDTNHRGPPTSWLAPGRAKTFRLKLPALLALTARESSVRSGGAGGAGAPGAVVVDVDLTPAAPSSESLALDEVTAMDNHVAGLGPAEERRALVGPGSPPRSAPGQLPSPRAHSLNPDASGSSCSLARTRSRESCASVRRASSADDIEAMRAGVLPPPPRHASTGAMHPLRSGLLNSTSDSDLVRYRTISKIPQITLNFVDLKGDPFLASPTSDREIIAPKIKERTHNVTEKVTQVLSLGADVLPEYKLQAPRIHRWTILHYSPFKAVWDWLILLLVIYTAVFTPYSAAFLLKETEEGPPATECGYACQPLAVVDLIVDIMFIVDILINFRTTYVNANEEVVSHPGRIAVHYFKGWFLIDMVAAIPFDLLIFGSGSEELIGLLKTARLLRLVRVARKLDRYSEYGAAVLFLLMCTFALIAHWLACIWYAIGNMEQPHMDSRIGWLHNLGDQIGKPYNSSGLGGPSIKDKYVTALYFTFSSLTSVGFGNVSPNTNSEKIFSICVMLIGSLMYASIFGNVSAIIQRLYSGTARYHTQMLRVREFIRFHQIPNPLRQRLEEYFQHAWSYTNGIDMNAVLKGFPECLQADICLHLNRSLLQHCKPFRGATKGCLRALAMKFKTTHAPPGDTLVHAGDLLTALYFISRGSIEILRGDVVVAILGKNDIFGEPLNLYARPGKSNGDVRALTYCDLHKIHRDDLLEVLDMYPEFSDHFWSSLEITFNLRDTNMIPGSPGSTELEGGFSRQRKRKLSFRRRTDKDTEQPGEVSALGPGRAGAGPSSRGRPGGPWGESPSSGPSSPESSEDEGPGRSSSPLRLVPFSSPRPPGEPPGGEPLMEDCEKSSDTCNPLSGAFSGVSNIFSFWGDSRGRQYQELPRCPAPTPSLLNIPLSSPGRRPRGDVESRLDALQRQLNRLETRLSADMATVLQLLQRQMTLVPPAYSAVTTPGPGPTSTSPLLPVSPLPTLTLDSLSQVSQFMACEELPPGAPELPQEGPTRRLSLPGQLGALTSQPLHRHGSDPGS
# Protocol: The activation of the hERG pathway was detected by the whole-cell patch-clamp technique at room temperature (22 ± 1 °C) using an AXON 200B amplifier through a digitizer (DigiData 1440A, Molecular Devices, USA) controlled by pClamp software (v10.0) as previously described.
# Human ether-à-go-go-related gene (hERG) K^+ channels are vital in cardiac repolarization[28],[29]. Drug cardiotoxicity can be partially attributed to hERG channel dysfunction that leads to long QT syndrome and ventricular action potential delay. […] The real-time current was measured during drug treatment. Figure 8A presents the command waveform of the tail-current protocol under voltage-clamp mode.
# ARP1 xenografts = assay: ARP1 xenograft in BALB/c nude mice; type: in vivo, mouse; settings: i.v. 4 mg/kg twice a week
# Protocol: BALB/c nude mice (male, 4–6 weeks old) were purchased from Ziyuan Co., Ltd. (Hangzhou, China). ARP1 cells (1 × 10^6 cells in 100 μl PBS) were injected subcutaneously into the hindquarters of each mouse. […] All mice were observed every 2 days for at least 7 weeks. Tumor growth was assessed by calculating volume according to the following equation: volume = a × b^2/2, where a is the widest length and b is the perpendicular diameter. On the appointed day, fifteen tumor tissue samples were removed from the mice for hematoxylin and eosin (H&E) staining and stained with Ki67 and CD138 antibodies. Investigators were blinded to the group allocation during measuring tumor size, weight, and performing staining. All animal procedures were approved by the Institutional Review Board of the College of Life Science, Nanjing Normal University (Approval No. IACUC-20200506).
# We next validated the anti-tumor role of D395 in vivo. Human MM cell line ARP1 (1 × 10^6 cells per mouse) were injected subcutaneously into BALB/c nude mice. […] The medication was given twice a week. Tumor size was measured every 3 days (Fig. 5A). […] On the endpoint day, all the mice were sacrificed, and tumors were collected (Fig. 5B, C). […] Tumor tissues were sampled for immunohistochemistry. The tissues were stained for Ki67, a cell proliferation marker, to show tumor growth (Fig. 5E).
# C57BL/6 mice = assay: Cardiotoxicity in C57BL/6 mice (echocardiography, serum enzymes, histopathology); type: in vivo, mouse; settings: 8 mg/kg i.p. every 2 days for 1 week
# Protocol: On day 7, the mice were sacrificed after an echocardiography test to harvest the serum for biochemical estimations. Biochemical estimations, including alanine aminotransferase (ALT), aspartate transaminase (AST), lactic dehydrogenase (LDH), creatine kinase-MB (CK-MB), and creatine kinase (CK), were tested using an autoanalyzer (Siemens, USA). Freshly harvested cardiac tissue was fixed in 4% buffered formalin solution for 24 h and embedded in paraffin wax. Sections ([…] thick) were obtained from each sample and stained with H&E. Histologic observation was performed with a Nikon i55 optical microscope (Nikon Corporation, Japan).
# In addition, CT-L activity recovered in a time-dependent manner, as previously discovered in vitro (Fig. 7B). […] The echocardiographic analysis was performed at baseline (day 0) and endpoint (day 7) (Fig. 7D). […] We also examined the levels of CK, CK-MB, LDH, ALT, and AST in the blood serum from the treated mice.
# MM patients = settings: carfilzomib-treated MM patients ref 13, 14; cited from earlier work
# [2] = system: NF-κB activity in NF-κB-luc HEK293T cells; assay: NF-κB luciferase reporter assay, TNF-α stimulated; settings: Homo sapiens, HEK-293T, read-out: IC50 of NF-κB luciferase activity
# Protocol: The plasmids pcDNA3.1-(+)-NF-κB and pcDNA3.1-(+)-Renilla were mixed with Lipofectamine 2000 (Invitrogen, USA) and then transfected into HEK293T cells (Institute of Biochemistry and Cell Biology, China). […] The activity of NF-κB was examined by the Dual-Luciferase® Reporter Assay System (Promega, USA) as previously described[22].
# Activation of NF-κB was determined by luciferase reporter gene assay using stably transfected NF-κB-luc HEK293T cells. The NF-κB signaling pathway was activated by TNF-α stimulation.
# six non-proteasomes = assay: Non-proteasome substrate-based assay (six non-proteasomes)
# Protocol: A standard substrate-based assay of non-proteasome was performed as described (GenScript, China)[19].
# [3] = system: proteasome CT-L activity in MM.1S cells; assay: Proteasome-Glo cell-based assay, CT-L activity in MM.1S cells; settings: read-out: IC50 of cellular proteasome CT-L activity, treated 1 h
# Protocol: (§3) In vitro, the 20S proteasome activity of cells was detected by using the Proteasome-Glo Assay (Promega, USA) either after drug treatment for 4, 24, or 48 h in fresh medium.
# (§4) Proteasome activity was measured by the Proteasome-Glo cell-based assay.
# [4] = system: proteasome CT-L activity in MM.1R cells; assay: Proteasome-Glo cell-based assay, CT-L activity in MM.1R cells; settings: read-out: IC50 of cellular proteasome CT-L activity, treated 1 h
# Protocol: as §3, §4
# [5] = system: proteasome CT-L activity in RPMI-8226 cells; assay: Proteasome-Glo cell-based assay, CT-L activity in RPMI-8226 cells; settings: read-out: IC50 of cellular proteasome CT-L activity, treated 1 h
# Protocol: as §3, §4
# RPMI-8226 BTZ-DR cells = assay: Annexin V flow cytometry in bortezomib-resistant cells; type: cell-based, human
# Protocol: as §1
# It is known that drug resistance limits the application of proteasome inhibitors in clinical treatment.
smiles,measurement,setting,value
CC(C)C[C@H](NC(=O)[C@H](CCc1ccccc1)NC(=O)CN1CCOCC1)C(=O)N[C@@H](Cc1ccccc1)C(=O)N[C@@H](CC(C)C)C(=O)[C@@]1(C)CO1 [Carfilzomib],IC50,MM.1S cells,7 ± 0.9 nM
same,IC50,MM.1R cells,11 ± 0.9 nM
same,IC50,RPMI-8226 cells,13.5 ± 1.9 nM
same,IC50,ARP1 cells,35.6 ± 5.1 nM
same,IC50,"[1]; 24 h, patient 1 (newly diagnosed)",56.5 ± 2.5 nM
same,IC50,"[1]; 24 h, patient 2 (newly diagnosed)",354 ± 19.4 nM
same,IC50,"[1]; 24 h, patient 3 (newly diagnosed)",444 ± 48 nM
same,IC50,"[1]; 24 h, patient 4 (relapsed)",38 ± 5.8 nM
same,IC50,"[1]; 36 h, patient 2 (newly diagnosed)",339 ± 22.8 nM
same,IC50,"[1]; 36 h, patient 3 (newly diagnosed)",288 ± 19.5 nM
same,IC50,hERG channels,25700 nM
same,Tumor growth,ARP1 xenografts; ARP1 xenograft,grew slower than those in the control group
same,Weight of the mice,ARP1 xenografts; treatment period,the weight of the mice did not change
same,"CT-L, C-L, and T-L activities in tumor samples",ARP1 xenografts; tumors at endpoint,lower in the carfilzomib and D395 groups than in the control group
same,Heart histological analysis (H&E),C57BL/6 mice,myocardial degeneration and myocardial fiber damage with cytoplasmic vacuoles
same,FS% and EF% (echocardiography),C57BL/6 mice; day 7,the FS% and EF% decreased in both the carfilzomib and D395 groups
same,Serum CK-MB and LDH levels,C57BL/6 mice; day 7,increased in the carfilzomib group
same,"LVEDD, LVESD, LVEDV, LVESV",C57BL/6 mice; versus control group,"No significant differences in LVEDD, LVESD, LVEDV, or LVESV"
same,Incidence of cardiotoxicity,MM patients,5–10%
same,IC50,[2],35.7 nM
same,Inhibitory effect on six non-proteasomes,six non-proteasomes,neither carfilzomib nor D395 exerted an inhibitory effect
same,IC50,[3],13.8 nM
same,IC50,[4],18.1 nM
same,IC50,[5],25.8 nM
"CC(C)C[C@H](NC(=O)[C@H](Cc1ccccc1)NC(=O)c1cnccn1)B(O)O [bortezomib, Bortezomib]",Apoptotic population / cell death,RPMI-8226 BTZ-DR cells,lower than that of the RPMI-8226 WT group

# Reference: publication PMC8087809 (Cell Death & Disease, 2021)
